The subject of data set [1] is human primary fibroblasts. The experiment in a line: resazurin viability assay on primary fibroblasts, Example 103 (FIG. 1). Format: cell-based. The conditions noted are these: 72 h incubation, applied concentration range 1.6 nM-5 μM. An excerpt: To obtain primary human fibroblasts healthy volunteers (age 18-60 years) were enrolled into the study. The punch biopsies were taken from healthy subjects from the breast area undergoing plastic surgery. Primary fibroblasts were obtained from the skin by enzymatic digestion according to a standard protocol. Skin specimens were first washed in Salsol A solution (Human Rt, Gödöllö, Hungary) supplemented with 2% antibiotic/antimycotic solution (Sigma-Aldrich). Skin samples were then cut into narrow strips and incubated in Dispase solution (Roche Diagnostics, Mannheim, Germany) overnight at 4° C. The epidermis was subsequently separated from the dermis. Fibroblasts were obtained by incubating the dermis in Digestion Mix solution (Collagenase, Hyaluronidase and Deoxyribonuclease) for 2h at 37° C. Cell suspensions were filtered through a 100 μm nylon mesh (BD Falcon, San Jose, Calif., USA) and cells were pelleted by centrifugation. Fibroblasts were grown in low glucose DMEM medium containing 5% FBS, 1% antibiotic/antimycotic (PAA, Pasching, Austria) and 1% L-glutamine solution (PAA). Fibroblasts were cultured at 37° C. and 5% CO2 in humidified conditions. Depending on the cell growth, the medium was changed every 2-4 days and cells were passaged at 80% of confluence.
The human primary fibroblasts (6000 cells/well) and Hl60 cells (20.000 cells/well) were seeded into 96-well plates (Corning Life Sciences) in media. Fibroblasts were cultured overnight before treatment. […] Resazurin reagent was prepared and used as described in Example 1.
Viability was calculated with relation to untreated control cells and blank wells containing media without cells. IC50 values (50% inhibiting concentration) were calculated by GraphPad Prism® 5.
(In general: Alamar Blue is a resazurin reagent that responds to reducing activity.)

Another data set relates to CD11b on HL-60 cells. The experiment in a line: flow cytometry of cell surface CD11b (FIG. 3B). Type of data set: cell-based, human. The conditions noted are these: HL-60, 24, 48 and 72 h after treatment. How it is done: Experiments detecting CD11b expression by Flow cytometric immunofluorescence were done as described in Example 104 without fixation and permeabilization. Native cell surface staining was done by CD11b-FITC (Immunotools cat number 21389113), with 1:20 dilution 24, 48 and 72 h after treatment.
A general note: A flow cytometer gives signals particle by particle.

In the next data set the test system is HL-60 cells. As to the kind of experiment: Annexin V / propidium iodide apoptosis assay (FIG. 4). Type of data set: cell-based, human. Particulars: HL-60, 40 nM, 200 nM and 1 μM, 24 h. How it is done: Cells (200,000/well) were plated in 24-well tissue culture plates (Corning Life Sciences) and treated with the compounds described in Example 60 and 83 at 40 nM, 200 nM and 1 μM concentrations in 500 μl media. After 24 h cells were harvested with the corresponding supernatant and centrifuged down (2000 rpm, 5 min). Pellets were resuspended in Annexin V binding buffer (0.01 M HEPES, 0.14 M NaCl and 2.5 mM CaCl2). Annexin V-Alexa Fluor® 488 (Life Technologies, 2.5:100) was added to the cells, which were then kept for 15 min in the dark at room temperature. Before the acquisition propidium iodide (10 μg/ml, Sigma-Aldrich) was added in Annexin V binding buffer to dilute Annexin V-Alexa Fluor® 488 5×. Cells (20.000 events) were analyzed on a FACSCalibur flow cytometer using CellQuest software (Becton Dickinson). The percentage of the FL1 (530/30 nm filter, Annexin V-Alexa Fluor® 488) positive and FL3 (670 nm filter, propidium iodide) negative early apoptotic cells and FL1 positive and FL3 positive late apoptotic cells were determined. The total apoptotic population included both early and late apoptotic cells. Column charts were created by GraphPad Prism® 5. Results are depicted in FIG. 4. […] We could detect AnnexinV^+/PI^− early and AnnexinV^+/PI^+ late apoptotic cell populations after 24 h of treatment.

Data set [2] deals with 4T1 mouse cells inoculated into the mammary gland of BalbC mouse. As to the kind of experiment: mammary carcinoma mouse model (FIG. 6). Format: in vivo. The conditions noted are these: 3 mg/kg intravenously, every other day from day 16, 6 occasions, compared to vehicle. How it is done:
The effect on mammary carcinoma was studied on BalbC mouse model inoculated subcutaneously into the mammary gland with 4T1 mouse cells (ATCC) (100,000 cells/animal). Two groups were formed from randomly selected mice, with 8 animals in both groups. Group 1: control group, it was only administered a carrier (0.1 mL, 0.9% NaCl solution) intravenously; group 2: group treated with compound 83, it was administered 3 mg/kg of compound 83 in PEG100:Solutol:PBS (1:4:15 vol ratio), intravenously after the tumor reached 300 mm^3 (day 16). The treatments were performed from the sixteenth day, every other day, for a total of 6 occasions. Starting from the 16th day on every day the size of the increasing tumours was determined in the case of each animal, and the group average was represented per group (FIG. 6). The standard deviation was determined in SEM. It can be seen that the treatment with compound 83 reduced the size of the increasing mammary tumour.

The test system of data set [3] is HL60 human acute myeloid leukaemia cells in SCID immune-deficient mouse. As to the kind of experiment: leukaemia mouse model (FIG. 7). The conditions noted are these: 3 mg/kg intravenously, 10 occasions. Format: in vivo. How it is done:
The effect on leukaemia was studied on SCID immune-deficient mouse model inoculated intravenously with HL60 human acute myeloid leukaemia cells (ATCC) (1 million cells/animal). Two groups were formed from randomly selected mice, with 9 animals in each group. Group1: control group, it was only administered a carrier (0.1 mL, 0.9% NaCl solution) intravenously; group 2: group treated with compound 60, it was administered 3 mg/kg of compound 60 in PEG100:Solutol:PBS (1:4:15 vol ratio), intravenously.
The treatments were performed from the third day, on five consecutive occasions per week, for 2 weeks, on a total of 10 occasions. As time went on, every day we determined the number of surviving animals and represented it in percentage per group as compared to the total initial number of animals (FIG. 7). It can be seen that the 3 mg/kg dose of compound 60 administered intravenously was effective, the treatment with compound 60 increased the LD50 (from day 26 to day 42) and the survival rate of the animals.

Entries after “also recorded” stand apart in the source; their conditions may differ.

As to `CC(C)(C)Nc1c(C(C)(C)C)[nH]c2c(C(=O)Nc3ccc(N)cc3)cnn12` [Example 83, N-(4-Aminophenyl)-2-(tert-butyl)-3-(tert-butylamino)-1H-imidazo[1,2-b]pyrazole-7-carboxamide], in data set [1], the “decrease in viability of human primary fibroblasts” value is listed as “Significant decrease in viability was not apparent”. Besides, the “matured myeloid cell marker CD11b on the cell surface” value in the data set with CD11b on HL-60 cells is on record as “elevation; also recorded: elevated”. Further, the “AnnexinV+/PI- early and AnnexinV+/PI+ late apoptotic cell populations” value in the data set on HL-60 cells is given as “accompanied by apoptosis”. Moreover, the “size of the increasing mammary tumour” value in data set [2] is listed as “reduced”.
For the molecule `CC(C)(C)Nc1c(C(C)(C)C)[nH]c2c(C(=O)Nc3ccc(F)cc3)cnn12` [Example 60, 2-(Tert-butyl)-N-(4-fluorophenyl)-3-((tert-butyl-2-yl)amino)-1H-imidazo[1,2-b]pyrazole-7-carboxamide], the “decrease in viability of human primary fibroblasts” value in data set [1] is reported as “Significant decrease in viability was not apparent”. For the same molecule, the “AnnexinV+/PI- early and AnnexinV+/PI+ late apoptotic cell populations” value with HL-60 cells is “accompanied by apoptosis”. Further, the “survival rate of the animals” value in data set [3] is given as “increased”. This molecule yielded a median survival time in data set [3] (control day 26) of 42 days.

The values are drawn from patent US20220064167A1, “IMIDAZO-PYRAZOLE CARBOXAMIDE DERIVATIVES AS ANTICANCER AGENTS AND THE SYNTHESIS THEREOF” (AVIDIN KFT., priority 2018, published 2022).
